Where a name gives a salt, the structure may show the parent alone. Read-outs that look alike come from different tables or passages of the source.
Columns and labels:
CYP3A4 = CYP3A4 (Homo sapiens, UniProt P08684); assay: in vitro; settings: microsomes, pH 7.4
CYP2C8 = biological target: T1, CYP2C8 (Homo sapiens, UniProt P10632); assay: in vitro; settings: microsomes, pH 7.4
T1 sequence (P10632 1-490): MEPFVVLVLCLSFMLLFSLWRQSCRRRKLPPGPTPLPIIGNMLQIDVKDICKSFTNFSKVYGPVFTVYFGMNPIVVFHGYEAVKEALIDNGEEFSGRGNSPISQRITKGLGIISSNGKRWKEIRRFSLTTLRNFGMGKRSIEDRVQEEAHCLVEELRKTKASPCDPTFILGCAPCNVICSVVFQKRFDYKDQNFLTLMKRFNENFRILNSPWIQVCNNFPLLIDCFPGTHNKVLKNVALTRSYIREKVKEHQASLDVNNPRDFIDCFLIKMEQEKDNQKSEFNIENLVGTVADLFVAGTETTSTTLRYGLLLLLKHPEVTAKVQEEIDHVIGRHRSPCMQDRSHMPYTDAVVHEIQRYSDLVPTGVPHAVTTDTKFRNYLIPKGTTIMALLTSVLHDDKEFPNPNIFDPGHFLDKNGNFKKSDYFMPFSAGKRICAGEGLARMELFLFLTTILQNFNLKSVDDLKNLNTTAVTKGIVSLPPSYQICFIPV

CYP2C19 = CYP2C19 (Homo sapiens, UniProt P33261); assay: in vitro; settings: microsomes, pH 7.4
CYP2C19, sequence (P33261 whole entry): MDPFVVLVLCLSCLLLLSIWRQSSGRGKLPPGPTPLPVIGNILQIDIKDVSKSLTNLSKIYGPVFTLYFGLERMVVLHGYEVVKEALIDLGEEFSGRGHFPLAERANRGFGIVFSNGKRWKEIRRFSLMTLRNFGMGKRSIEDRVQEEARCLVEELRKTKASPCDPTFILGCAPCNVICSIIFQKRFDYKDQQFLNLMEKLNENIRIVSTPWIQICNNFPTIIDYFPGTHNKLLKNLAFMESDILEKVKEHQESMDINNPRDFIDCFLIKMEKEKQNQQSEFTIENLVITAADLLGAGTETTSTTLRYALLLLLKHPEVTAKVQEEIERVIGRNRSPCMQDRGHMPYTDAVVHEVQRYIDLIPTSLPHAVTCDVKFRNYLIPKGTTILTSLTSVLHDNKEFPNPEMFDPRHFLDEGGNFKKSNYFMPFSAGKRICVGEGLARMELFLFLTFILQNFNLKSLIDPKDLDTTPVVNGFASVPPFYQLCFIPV

[1] = system: phospho-ERK in Hs852.T cells; assay: pERK/tERK ratio in Hs852.T melanoma model; type: cell-based; settings: Hs852.T (NRAS p.G12V); 100 nM
Protocol: (§1) Compound (drug) treatment: Cells were plated in a 6-well plate at a density of 250,000-300,000 cells/well in 3 mL media and incubated 37° C. in a humidified, 5% CO2 incubator. […] These solutions were added to the cells (3 uL/well), mixed by swirling the plate, and incubated at 37° C. in a humidified, 5% CO2 incubator for 2 hours.
(§2) Cell lysis and protein estimation: Cells were washed with PBS, and scraped in 50 μL of lysis buffer containing protease and phosphatase inhibitors. Cell lysates were stored at −20° C. Cell lysates were thawed and spun at 12,000 rpm for one minute, 3 ul of the supernatant was added to 500 μL of Coomassie blue reagent following by 500 μL of water. […] Protein standards were used (0-20 mg/mL) to calculate protein concentrations of test samples.
(§3) All samples were heated at 95° C. for 5 minutes, cooled to room temperature and spun down. […] After the run, gel was removed and protein transfer was done using iBlot for 7 minutes, as per manufacturer's recommendations. After the transfer, nitrocellulose membrane was incubated on a shaker in 5 mL of blocking buffer at room temperature for 1 hr. The blot was then incubated overnight on a shaker in 5 ml of blocking buffer containing 0.2% Tween-20 and primary antibody, at room temperature. Anti-phospho-STAT3 antibody was used at a dilution of 1:500, the other 3 primary antibodies were used at a dilution of 1:1000.
(§4) Next day, the blot was washed 3 times for 10 min each with 10 mL of TBST followed by incubation on a shaker in 5 ml of blocking buffer containing 0.2% Tween-20 and 0.5 ul of the IRDye labeled secondary antibodies, diluted 1:10000, at room temperature for 1 hr. The blot was then washed 3 times for 10 min each with 10 mL of TBST and dried between sheets of paper towels. Imaging was done using LICOR's Odyssey imaging system, quantitation was done using their software, Image Studio version 3.1.
(§5) The nine models are described in Table 16.

[2] = system: phospho-ERK in A375 cells; assay: Cell-based pERK (pERK:tERK) in A375 cells; settings: for pERK/tERK ratio normalized to DMSO: A375 (BRAF p.V600E), 100 nM
Protocol: Materials and Methods: A549 or A375 cells were seeded in 6-well plates at an appropriate seeding density on day 0. On day 2 or 3, after checking the health and confluency of cells, the media was aspirated and replaced with 1 mL media containing a predetermined concentration of compound and incubated for 2 hours. After 2 hours, the media was aspirated, and the cells washed 2 times with cold PBS. Cells were lysed on ice, with 50 uL 1×CST lysis buffer +1 mM PMSF for 5 minutes. After 5 minutes, cells were removed using a scraper and transferred to cold 1.5 mL tubes, and centrifuged for 10 min, 4° C., 14,000×g. Supernatant was gently removed and snap frozen in liquid nitrogen. Protein concentration of the lysate was determined using Bradford Reagent (analyzed using SpectraMax M2E) and diluted to 1 mg/mL or pERK or 1.5 mg/mL for pMEK analysis. […] All dilutions were in Milk-free antibody diluent.
A549 or […] cells were treated in duplicate for two hours with compounds at varying concentrations. After two hours, the cells were lysed, snap frozen, and stored at −80° C. After storage, the lysate was quantified with the Bradford assay. Before the lysates were prepared to run on the Jess, the lysates were diluted to 1 mg/mL for pERK analysis and 1.5 mg/mL pMEK analysis using quantitative Western blotting. ERK and MEK phosphorylation levels were estimated by taking the ratio of phospho-protein to total protein and normalizing to the DMSO control.
as §5

[3] = system: phospho-ERK in SK-MEL-30 cells; assay: pERK/tERK ratio in SK-MEL-30 melanoma model; type: cell-based; settings: SK-MEL-30 (NRAS p.Q61K); 100 nM
Protocol: as §1, §2, §3, §4, §5

[4] = system: phospho-ERK in MM415 cells; assay: pERK/tERK ratio in MM415 melanoma model; type: cell-based; settings: MM415 (NRAS p.Q61L); 100 nM
Protocol: as §1, §2, §3, §4, §5

[5] = system: phospho-MEK in SK-MEL-30 cells; assay: pMEK/tMEK ratio in SK-MEL-30 melanoma model; type: cell-based
Protocol: as §1, §2, §3, §4, §5

[6] = system: phospho-MEK in A375 cells; assay: pMEK/tMEK ratio in A375 melanoma model; type: cell-based; settings: A375 (BRAF p.V600E); 100 nM
Protocol: as §1, §2, §3, §4, §5

in vitro = settings: human; for Papp A→B at 2 h, 10 μM: Caco-2, Mean Papp A-B (10^-6 cm/s); for Papp B→A at 2 h, 10 μM: Caco-2, Mean Papp B-A (10^-6 cm/s)
[7] = system: phospho-MEK in A549 cells; assay: Cell-based pMEK (pMEK:tMEK, CRAF bypass) in A549 cells; settings: for A549-CRAF BP 100 nM, 2 h: pMEK to total MEK normalized to DMSO control
Method in brief: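 Cells (A549 or A375) exposed 2 h to compounds at varying concentrations in duplicate, then lysed; lysates set to 1.5 mg/mL for pMEK by quantitative Western (Jess). Phospho-MEK/total MEK ratio normalized to DMSO control.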

[8] = Human liver microsome stability (t1/2, Clint)
[9] = Mouse liver microsome stability (t1/2, Clint); settings: for half-life at 1 μM / microsomal CLint at 1 μM: mouse, liver microsomes, pH 7.4
[10] = Plasma stability, mouse plasma (Balb/c; Table 5 head CD-1 Mouse); type: in vitro ADME; settings: 2 μM
[11] = human, liver microsomes, pH 7.4
[12] = 1 μM, 0.5 mg/ml microsomal protein

CYP3A4, sequence (P08684 whole entry): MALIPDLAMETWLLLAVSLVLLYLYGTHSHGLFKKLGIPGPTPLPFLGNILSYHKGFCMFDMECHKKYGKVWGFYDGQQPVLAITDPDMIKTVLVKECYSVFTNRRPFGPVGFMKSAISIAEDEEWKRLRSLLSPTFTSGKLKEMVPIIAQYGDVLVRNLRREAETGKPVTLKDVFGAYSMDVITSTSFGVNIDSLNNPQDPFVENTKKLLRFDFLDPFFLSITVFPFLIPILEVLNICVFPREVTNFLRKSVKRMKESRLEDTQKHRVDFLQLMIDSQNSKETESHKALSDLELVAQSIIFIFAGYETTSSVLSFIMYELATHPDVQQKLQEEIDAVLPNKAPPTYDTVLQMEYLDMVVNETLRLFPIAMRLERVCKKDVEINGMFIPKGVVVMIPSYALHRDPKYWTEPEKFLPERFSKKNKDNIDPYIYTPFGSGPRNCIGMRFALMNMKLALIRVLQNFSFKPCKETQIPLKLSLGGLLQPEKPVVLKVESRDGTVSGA

CNS(=O)(=O)Nc1cccc(Cc2c(CN3CCNCC3)c3cc(Cl)c(OC(=O)N(C)C)cc3oc2=O)c1Cl [Compound 256, 6-chloro-3-(2-chloro-3-((N-methylsulfamoyl)amino)benzyl)-2-oxo-4-(piperazin-1-ylmethyl)-2H-chromen-7-yl dimethylcarbamate hydrochloride]
inhibition at 30 min, 10 µM (CYP3A4): 61.8%
inhibition at 30 min, 10 µM (CYP2C8): 97%
inhibition at 30 min, 10 µM (CYP2C19): 40.8%

CNS(=O)(=O)Nc1cccc(Cc2c(CN(C)C)c3ccc(OC(=O)N(C)C)cc3oc2=O)c1Cl [Compound 274, 3-(2-chloro-3-((N-methylsulfamoyl)amino)benzyl)-4-((dimethylamino)methyl)-2-oxo-2H-chromen-7-yl dimethylcarbamate]
pERK/tERK ratio normalized to DMSO [1]: 0.731
pERK/tERK ratio normalized to DMSO [2]: 0.477
inhibition at 30 min, 10 µM (CYP2C8): 11.9%
pERK/tERK ratio normalized to DMSO [3]: 0.521
pERK/tERK ratio normalized to DMSO [4]: 0.423
inhibition at 30 min, 10 µM (CYP2C19): 15.1%
pMEK/tMEK ratio normalized to DMSO ([5]; SK-MEL-30 (NRAS p.Q61K), 100 nM): 0.609
pMEK/tMEK ratio normalized to DMSO [6]: 0.585

Cn1cnc2c(F)c(Nc3ccc(Br)cc3Cl)c(C(=O)NOCCO)cc21 [Reference-1, Selumetinib]
pERK/tERK ratio normalized to DMSO [1]: 0.293
A375 pERK:tERK ratio [10 nM; 2 hr] [2]: 0.59
pERK/tERK ratio normalized to DMSO [2]: 0.199
efflux ratio at 2 h, 10 μM (in vitro; Caco-2, Mean (B-A/A-B) (Efflux Ratio)): 3.19
Papp A→B at 2 h, 10 μM (in vitro): 8.83 ×10⁻⁶ cm/s
Papp B→A at 2 h, 10 μM (in vitro): 28.2 ×10⁻⁶ cm/s
pERK/tERK ratio normalized to DMSO [3]: 0.163
pERK/tERK ratio normalized to DMSO [4]: 0.114
CRAF A549 pMEK:tMEK [100 nM; 2 hr] [7]: 2.09
pMEK/tMEK ratio normalized to DMSO [5]: 2.177
half-life at 1 μM [8, 11]: > 90 min
A-B Permeability Ranking (Caco-2 cells): High
half-life at 1 μM [9]: 18 min
microsomal CLint at 1 μM [9]: 78 µL/min/mg
CD-1 Mouse (% Reamining @2 hour) ([10]; CD-1, mouse, 2 h, pH 7.4): 104.8%
pMEK/tMEK ratio normalized to DMSO [6]: 0.962

CCN(C)Cc1c(Cc2cccc(NS(=O)(=O)NC)c2Cl)c(=O)oc2cc(OC(=O)N(C)C)ccc12 [Compound 245, 3-(2-chloro-3-((N-methylsulfamoyl)amino)benzyl)-4-((ethyl(methyl)amino)methyl)-2-oxo-2H-chromen-7-yl dimethylcarbamate]
inhibition at 30 min, 10 µM (CYP2C8): 30.4%
inhibition at 30 min, 10 µM (CYP2C19): 29%

CNS(=O)(=O)Nc1cccc(Cc2c(CN(C)C)c3ccc(OC(=O)N(C)C)cc3oc2=O)c1F [Compound 9]
A375 pERK:tERK ratio [10 nM; 2 hr] [2]: 0.71
A549-CRAF BP 100 nM, 2 h [7]: 44.9 (mean, n = 8)
CRAF A549 pMEK:tMEK [100 nM; 2 hr] [7]: 0.47
Human Clint [8, 12]: 40 µL/min/mg
Human Microsome (t1/2 min) [8, 12]: 35 min
Mouse Clint [9, 12]: 32 µL/min/mg
Mouse Microsome (t1/2 min) [9, 12]: 44 min

CNS(=O)(=O)Nc1cccc(Cc2c(CN3CCNCC3)c3ccc(OC(=O)N(C)C)cc3oc2=O)c1Cl [Compound 246, 3-(2-chloro-3-((N-methylsulfamoyl)amino)benzyl)-2-oxo-4-(piperazin-1-ylmethyl)-2H-chromen-7-yl dimethylcarbamate hydrochloride]
inhibition at 30 min, 10 µM (CYP3A4): 16.2%
inhibition at 30 min, 10 µM (CYP2C8): 10.5%
inhibition at 30 min, 10 µM (CYP2C19): 22%

CNS(=O)(=O)Nc1nccc(Cc2c(C)c3ccc(Oc4ncccn4)cc3oc2=O)c1F [Reference-2, reference compound]
Papp A→B at 2 h, 10 μM (in vitro): 18.1 ×10⁻⁶ cm/s
Papp B→A at 2 h, 10 μM (in vitro): 20.9 ×10⁻⁶ cm/s
CRAF A549 pMEK:tMEK [100 nM; 2 hr] [7]: 2.09
microsomal CLint at 1 μM [8, 11]: < 15 µL/min/mg
A-B Permeability Ranking (Caco-2 cells): High
half-life at 1 μM [9]: 18 min
microsomal CLint at 1 μM [9]: 78 µL/min/mg
CD-1 Mouse (% Reamining @2 hour) ([10]; plasma, 2 hour): 92.9%

CNS(=O)(=O)Nc1cccc(Cc2c(CN(C)C)c3cc(F)c(OC(=O)N(C)C)cc3oc2=O)c1F [Compound 25]
A549-CRAF BP 100 nM, 2 h [7]: 71

CNS(=O)(=O)Nc1cccc(Cc2c(CN3CCNCC3)c3cc(F)c(OC(=O)N(C)C)cc3oc2=O)c1F [Compound 134]
A549-CRAF BP 100 nM, 2 h [7]: 26.9

CCS(=O)(=O)Nc1cccc(Cc2c(CN3CCNCC3)c3cc(Cl)c(OC(=O)N(C)C)cc3oc2=O)c1Cl [Compound 257, 6-chloro-3-(2-chloro-3-(ethylsulfonamido)benzyl)-2-oxo-4-(piperazin-1-ylmethyl)-2H-chromen-7-yl dimethylcarbamate hydrochloride]
inhibition at 30 min, 10 µM (CYP3A4): 67.4%
inhibition at 30 min, 10 µM (CYP2C8): 97.5%
inhibition at 30 min, 10 µM (CYP2C19): 47.5%

From US20250179057A1, “MEK IMMUNE ONCOLOGY INHIBITORS AND THERAPEUTIC USES THEREOF” (Immuneering Corporation, priority 2022, published 2025)
